Laboratory results from US20190329063A1, “METHOD FOR MODIFYING THE T[…] OF DRUGS” (priority 2016, published 2019).

Legend:
[1] = system: subjects medicated with MPH; assay: Conjunctive continuous performance task (CPT) after half dose MPH with cognitive induction or music control; format: in vivo, human; conditions: half dose MPH PO
Excerpt: Reference is now made to FIGS. 7A-7B, depicting validation experiments for testing whether FPC improves attention functions of subjects medicated with MPH, according to some embodiments of the invention. In some embodiments, the experiment includes three sessions. In some embodiments, in the first session 702, the subjects performed a conjunctive continuous performance task (CPT, Shalev et al., 2011). In some embodiments, this test yields measures of sustained attention, which are generalized across different sensory modalities.
According to some embodiments, in the second and the third sessions 706, the subjects took half of their prescribed drug 708 dose by per os (PO) administration. In some embodiments, in the first epoch they went through either a cognitive induction condition 714 during which they performed the NeuroTrax tasks or a control condition 712 during which they listened to a piece of their favorite music. In some embodiments, these 30 min conditions were followed by a 20-minutes rest epoch 716, for example to allow for the testing of an enduring effect of the FPC. […]
According to some exemplary embodiments, FPC effect was measured for the sustained attention measures of average 722 and standard deviation 724 response time, which show high reliability and validity (Shalev et al., 2011). […]

ADHD patients = assay: Real-time fMRI neurofeedback of right-IFG after Ritalin IR with CPTi, CPT and Strooplike tasks; format: in vivo, human; conditions: 0.1-0.2 mg/kg Ritalin IR; right-IFG Up vs Down regulation; 24 ADHD patients
Experimental: According to some exemplary embodiments, 24 ADHD patients participated in a three session within-subject experimental design.
In some embodiments, taking the known pharmacokinetic properties of MPH into account, the neurofeedback paradigm was scheduled to begin towards the estimated peak concentration of MPH in brain blood plasma (45 min), and last for 40 minutes, well into the drug's plateau of concentration phase, thus assuming a maximum effect of drug delivery and absorption to the rIFG and related brain regions. Additionally, cognitive performance was evaluated before administration and following the NF task via three behavioral tasks (CPTi, CPT and Strooplike, measuring response inhibition, sustained attention and executive attention, respectively; Shalev-Mevorach et al. 2005; 2011).

[2] = after administration of Ritalin IR; cited from earlier work

Compound: COC(=O)C(c1ccccc1)C1CCCCN1 (stereo not shown) [MPH, Methylphenidate]
- improvement of sustained attention measures, cognitive induction task relative to control task (music) ([1]; two subjects): higher
- sustained attention measures of average and standard deviation response time (CPT) ([1]; two subjects (males)): improved
- effects on sustained attention (CPT task) and response inhibition (CPTi task) following the up regulation condition (ADHD patients): substantially larger effects
- estimated peak concentration of MPH in brain blood plasma (time) [2]: 45 min
